The results in this text go back to patent US20070043024A1, “Azacyclic compounds as inhibitors of sensory neurone specific channels” (priority 2003, published 2007).

The IC50 is the midpoint of a concentration-inhibition curve.

The test concerns the target T1, human Nav1.8 (hNav1.8) ion channel (Homo sapiens, UniProt Q9Y5Y9).
T1 construct: expressed in transfected cells
The test can be described thus: Inhibition of human Nav1.8 stably expressed in SH-SY-5Y cells (membrane potential dye fluorescence assay). As to conditions: SH-SY-5Y hNav1.8 cells, inhibition of membrane depolarisation, FLIPR membrane potential dye, 250 nM TTX, test concentration range 100 μM-0.05 μM, read-out: IC50. Type of test: cell-based.

[1] abbreviates: Table 2 (compound numbers of the list in the description).

Read-outs that look alike come from different tables or passages of the source.

T1 sequence (Q9Y5Y9 whole entry): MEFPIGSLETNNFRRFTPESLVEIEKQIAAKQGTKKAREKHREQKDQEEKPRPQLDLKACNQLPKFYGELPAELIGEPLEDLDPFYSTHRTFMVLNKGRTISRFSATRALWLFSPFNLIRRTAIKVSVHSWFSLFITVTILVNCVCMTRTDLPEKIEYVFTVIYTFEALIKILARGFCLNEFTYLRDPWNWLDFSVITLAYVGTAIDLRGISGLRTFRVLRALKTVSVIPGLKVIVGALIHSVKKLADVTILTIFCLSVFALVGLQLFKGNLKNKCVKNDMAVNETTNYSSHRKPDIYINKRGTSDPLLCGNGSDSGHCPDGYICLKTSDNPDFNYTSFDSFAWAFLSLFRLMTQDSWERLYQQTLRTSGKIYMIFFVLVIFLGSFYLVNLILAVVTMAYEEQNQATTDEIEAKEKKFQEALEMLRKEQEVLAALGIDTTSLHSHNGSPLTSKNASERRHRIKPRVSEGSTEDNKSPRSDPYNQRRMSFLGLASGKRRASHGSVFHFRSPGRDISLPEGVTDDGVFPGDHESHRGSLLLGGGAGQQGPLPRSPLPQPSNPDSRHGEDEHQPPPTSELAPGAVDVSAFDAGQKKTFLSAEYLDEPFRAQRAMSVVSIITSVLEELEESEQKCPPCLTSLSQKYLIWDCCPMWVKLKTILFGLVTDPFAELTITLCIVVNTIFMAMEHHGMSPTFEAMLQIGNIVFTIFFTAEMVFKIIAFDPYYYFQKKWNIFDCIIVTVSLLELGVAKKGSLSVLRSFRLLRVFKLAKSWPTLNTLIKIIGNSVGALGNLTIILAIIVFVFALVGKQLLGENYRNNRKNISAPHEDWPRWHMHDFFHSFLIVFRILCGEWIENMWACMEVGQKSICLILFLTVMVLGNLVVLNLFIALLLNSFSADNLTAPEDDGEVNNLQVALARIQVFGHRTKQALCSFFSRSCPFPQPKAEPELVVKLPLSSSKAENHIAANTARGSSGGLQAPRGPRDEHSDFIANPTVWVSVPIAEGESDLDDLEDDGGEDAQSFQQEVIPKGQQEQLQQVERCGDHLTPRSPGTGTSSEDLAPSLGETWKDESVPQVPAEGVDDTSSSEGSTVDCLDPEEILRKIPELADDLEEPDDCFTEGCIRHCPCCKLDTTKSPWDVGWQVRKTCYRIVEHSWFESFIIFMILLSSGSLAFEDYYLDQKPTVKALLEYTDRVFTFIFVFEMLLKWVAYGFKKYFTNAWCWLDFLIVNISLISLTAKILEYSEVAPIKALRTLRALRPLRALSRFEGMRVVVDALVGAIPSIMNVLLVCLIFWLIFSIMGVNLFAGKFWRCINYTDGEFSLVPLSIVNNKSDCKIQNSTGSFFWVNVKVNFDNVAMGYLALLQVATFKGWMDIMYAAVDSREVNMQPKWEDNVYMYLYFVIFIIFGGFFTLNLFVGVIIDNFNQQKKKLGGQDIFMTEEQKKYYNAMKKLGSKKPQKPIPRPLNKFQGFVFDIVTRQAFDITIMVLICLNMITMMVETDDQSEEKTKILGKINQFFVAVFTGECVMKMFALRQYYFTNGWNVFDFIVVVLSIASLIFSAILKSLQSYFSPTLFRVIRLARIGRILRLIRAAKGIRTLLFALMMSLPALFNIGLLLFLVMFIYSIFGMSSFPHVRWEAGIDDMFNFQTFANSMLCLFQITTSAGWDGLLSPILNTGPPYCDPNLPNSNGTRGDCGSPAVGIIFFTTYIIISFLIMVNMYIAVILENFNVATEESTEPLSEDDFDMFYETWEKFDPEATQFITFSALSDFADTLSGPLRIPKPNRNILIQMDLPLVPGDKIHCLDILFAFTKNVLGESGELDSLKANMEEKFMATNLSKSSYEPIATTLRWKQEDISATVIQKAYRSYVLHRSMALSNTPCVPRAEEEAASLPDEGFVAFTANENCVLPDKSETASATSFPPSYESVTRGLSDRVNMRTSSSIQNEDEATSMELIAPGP

As for `COc1cccc2c1CN(CC(=O)N1c3ccccc3Sc3ccc(SC)cc31)CC2` [Compound 159, 2-(8-Methoxy-3,4-dihydro-1H-isoquinolin-2-yl)-1-(2-methylsulfanyl-phenothiazin-10-yl)-ethanone], the IC50 under setting [1] was 20800 nM.

For the compound `N#Cc1cccc2c1CN(CC(=O)N1c3ccccc3Oc3ccccc31)C2` [Compound 220, 2-(2-Oxo-2-phenoxazin-10-yl-ethyl)-2,3-dihydro-1H-isoindole-4-carbonitrile], the IC50 under setting [1] turned out to be 800 nM.

Turning to `O=C(CN1Cc2ccccc2C1)NC(c1ccc(F)cc1)c1ccc(F)cc1` [Compound 118, N-[Bis-(4-fluoro-phenyl)-methyl]-2-(1,3-dihydro-isoindol-2-yl)-acetamide], the half-maximal inhibitory concentration (IC50) under setting [1] came out at 10200 nM.

As for `COc1cccc2c1CN(C(=O)CNCC(c1ccccc1)c1ccccc1)CC2` [Example 39, 2-(2,2-Diphenyl-ethylamino)-1-(8-methoxy-3,4-dihydro-1H-isoquinolin-2-yl)-ethanone], under “Table 1”, the IC50 came out at 450 nM.

Regarding `COc1cc2c(cc1OC)CN(CC(=O)N1c3ccccc3[S+]([O-])c3ccccc31)CC2` [Compound 157, 2-(6,7-Dimethoxy-3,4-dihydro-1H-isoquinolin-2-yl)-1-(5-oxo-5H-5lambda*4*-phenothiazin-10-yl)-ethanone], the IC50 under setting [1] came out at 30000 nM.

Consider `COc1cccc2c1CN(CC(=O)NCCCC(c1ccccc1)c1ccccc1)CC2` [Compound 81, N-(4,4-diphenyl-butyl)-2-(8-methoxy-3,4-dihydro-1H-isoquinolin-2-yl)-acetamide], for which the IC50 under setting [1] turned out to be 1400 nM.

In the case of `COc1cccc2c1CN(CCC(=O)N(Cc1ccccc1)Cc1ccccc1)CC2` [Compound 87, N,N-dibenzyl-3-(8-methoxy-3,4-dihydro-1H-isoquinolin-2-yl)-propionamide], under setting [1], the concentration for half-maximal inhibition (IC50) was found to be 490 nM.

For `COc1cc2c(cc1OC)CN(CC(=O)N1c3ccccc3Sc3ccc(C(F)(F)F)cc31)CC2` [Compound 154, 2-(6,7-Dimethoxy-3,4-dihydro-1H-isoquinolin-2-yl)-1-(2-trifluoromethyl-phenothiazin-10-yl)-ethanone], under setting [1], the IC50 turned out to be 12400 nM.

For the compound `COc1cccc2c1CN(CCNC(=O)N1c3ccccc3Sc3ccccc31)CC2` [Compound 162, Phenothiazine-10-carboxylic acid [2-(8-methoxy-3,4-dihydro-1H-isoquinolin-2-yl)-ethyl]-amide], under setting [1], the IC50 stood at 970 nM.

`Oc1cccc2c1CN(CCCC(c1ccc(F)cc1)c1ccc(F)cc1)CC2` [Example 96, 2-[4,4-Bis-(4-fluoro-phenyl)-butyl]-1,2,3,4-tetrahydro-isoquinolin-8-ol]: for the setting “Table 1”, the IC50 was 1940 nM.

As to `COc1ccc2c(c1)CCCN(C(=S)NC(c1ccccc1)c1ccccc1)C2` [Compound 76, 7-methoxy-1,3,4,5-tetrahydro-benzo[c]azepine-2-carbothioic acid benzhydryl-amide], the IC50 under setting [1] was determined as 14800 nM.

On to `O=C(CN1Cc2ccccc2C1)N1CCN(C(c2ccccc2)c2ccccc2)CC1` [Example 67, 1-(4-Benzhydryl-piperazin-1-yl)-2-(1,3-dihydro-isoindol-2-yl)-ethanone], for which, where the note is “Table 1”, the 50% inhibitory concentration (IC50) came to 2350 nM.

On to `O=C(CN1c2ccccc2Oc2ccccc21)N1Cc2ccccc2C1` [Compound 218, 1-(1,3-Dihydro-isoindol-2-yl)-2-phenoxazin-10-yl-ethanone], for which the IC50 under setting [1] is 12800 nM.

On to `CC(=O)c1ccc2c(c1)N(C(=O)CN1CCc3cccc(O)c3C1)c1ccccc1S2` [Compound 147, 1-(2-Acetyl-phenothiazin-10-yl)-2-(8-hydroxy-3,4-dihydro-1H-isoquinolin-2-yl)-ethanone], for which, under setting [1], the concentration for half-maximal inhibition (IC50) is 2040 nM.

Turning to `O=C(CN1CCc2ccccc2C1)N1CCN(C(c2ccc(F)cc2)c2ccc(F)cc2)CC1` [Example 65, 1-{4-[Bis-(4-fluoro-phenyl)-methyl]-piperazin-1-yl}-2-(3,4-dihydro-1H-isoquinolin-2-yl)-ethanone], where the note is “Table 1”, the IC50 was found to be 5640 nM.

In the case of “N-Benzhydryl-2-(8-methoxy-3,4-dihydro-1H-isoquinolin-2-yl)-N-phenyl-acetamide [Example 21]”, the half-inhibitory concentration (IC50) (Table 1) worked out at 1250 nM.
